Tests used:
[1] = target: GABA-A receptor; anion channel (Rattus norvegicus) (UniProt O09028+P15431+P18506+P18508+P19969+P20236+P23574+P23576+P28471+P28473+P30191+P62813+P63079+P63138+Q91ZM7+Q9ES14); details: Compound concentration 10.0 uM
[2] = target: Mitogen-activated protein kinase 1 (Mus musculus) (UniProt P63085); experiment: MAPK2 (m) Upstate kinase activity assay; details: Compound concentration 10.0 uM
[3] = target: Receptor-type tyrosine-protein kinase FLT3 (Homo sapiens) (UniProt P36888); details: Compound concentration 10.0 uM
[4] = species: Rattus norvegicus; experiment: Rsk1 (r) Upstate kinase activity assay; details: Compound concentration 10.0 uM
[5] = target: Tyrosine-protein kinase Fes/Fps (Homo sapiens) (UniProt P07332); experiment: Fes (h) Upstate kinase activity assay; details: Compound concentration 10.0 uM
[6] = target: Tyrosine-protein kinase ABL1 (Mus musculus) (UniProt P00520); experiment: Abl (m) Upstate kinase activity assay; details: Compound concentration 10.0 uM
[7] = target: Tyrosine-protein kinase ABL2 (Homo sapiens) (UniProt P42684); experiment: Arg (h) Upstate kinase activity assay; details: Compound concentration 10.0 uM
[8] = target: RAC-beta serine/threonine-protein kinase (Homo sapiens) (UniProt P31751); experiment: PKBbeta (h) Upstate kinase activity assay; details: Compound concentration 10.0 uM
[9] = target: T1, Serine/threonine-protein kinase Chk1 (Homo sapiens) (UniProt O14757); experiment: CHK1 (h) Upstate kinase activity assay; details: Compound concentration 10.0 uM
T1 sequence (whole entry): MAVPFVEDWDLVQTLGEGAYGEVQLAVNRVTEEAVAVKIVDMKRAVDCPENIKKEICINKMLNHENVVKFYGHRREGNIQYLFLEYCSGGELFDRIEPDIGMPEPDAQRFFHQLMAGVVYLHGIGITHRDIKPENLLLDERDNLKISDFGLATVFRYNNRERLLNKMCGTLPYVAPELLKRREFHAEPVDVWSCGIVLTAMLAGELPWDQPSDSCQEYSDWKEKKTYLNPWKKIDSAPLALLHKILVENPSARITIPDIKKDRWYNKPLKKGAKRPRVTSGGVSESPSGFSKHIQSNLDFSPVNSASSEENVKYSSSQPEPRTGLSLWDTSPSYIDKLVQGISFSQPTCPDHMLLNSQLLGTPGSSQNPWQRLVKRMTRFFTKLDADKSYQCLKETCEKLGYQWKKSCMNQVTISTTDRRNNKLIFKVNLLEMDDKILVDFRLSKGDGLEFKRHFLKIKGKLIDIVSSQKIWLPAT

[10] = target: Glycogen synthase kinase-3 beta (Homo sapiens) (UniProt P49841); experiment: GSK3beta (h) Upstate kinase activity assay; details: Compound concentration 10.0 uM
[11] = test system: PANC-1; experiment: Pancreas PANC-1 cell line MDS Pharma Services Proliferation Assay; type: functional, cell-based, Homo sapiens
[12] = target: Tyrosine-protein kinase receptor UFO (Homo sapiens) (UniProt P30530); experiment: Axl (h) Upstate kinase activity assay; details: Compound concentration 10.0 uM
[13] = target: Cyclin-dependent kinase 2/cyclin A (Homo sapiens) (UniProt P24941+P20248+P78396); experiment: CDK2/ cyclin A (h) Upstate kinase activity assay; type: protein-complex assay; details: Compound concentration 10.0 uM
[14] = test system: A498; experiment: Kidney A-498 cell line MDS Pharma Services Proliferation Assay; type: functional, cell-based, Homo sapiens
[15] = test system: U-937; experiment: Lymphoma U937 cell line MDS Pharma Services Proliferation Assay; type: functional, cell-based, Homo sapiens
[16] = target: T2, Tyrosine-protein kinase ZAP-70 (Homo sapiens) (UniProt P43403); experiment: ZAP-70 (h) Upstate kinase activity assay; details: Compound concentration 10.0 uM
T2 sequence (whole entry): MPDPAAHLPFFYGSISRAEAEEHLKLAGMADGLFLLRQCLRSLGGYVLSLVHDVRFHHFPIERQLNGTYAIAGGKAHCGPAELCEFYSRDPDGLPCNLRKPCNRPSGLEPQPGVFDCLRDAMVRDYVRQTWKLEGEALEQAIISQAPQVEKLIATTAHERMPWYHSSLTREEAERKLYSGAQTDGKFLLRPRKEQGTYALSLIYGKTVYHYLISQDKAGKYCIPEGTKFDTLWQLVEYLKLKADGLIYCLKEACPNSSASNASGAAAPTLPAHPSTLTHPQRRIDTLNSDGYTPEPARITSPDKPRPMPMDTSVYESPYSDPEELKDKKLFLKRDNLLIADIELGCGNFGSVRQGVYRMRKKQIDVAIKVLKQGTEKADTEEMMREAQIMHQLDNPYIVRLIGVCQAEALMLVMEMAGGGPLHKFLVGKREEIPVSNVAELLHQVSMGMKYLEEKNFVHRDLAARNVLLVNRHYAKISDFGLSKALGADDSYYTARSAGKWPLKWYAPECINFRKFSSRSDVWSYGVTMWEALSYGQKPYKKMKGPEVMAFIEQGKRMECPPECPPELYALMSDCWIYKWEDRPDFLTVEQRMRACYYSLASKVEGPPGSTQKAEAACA

[17] = test system: DLD-1; experiment: Colon DLD-1 cell line MDS Pharma Services Proliferation Assay; type: functional, cell-based, Homo sapiens
[18] = Melanoma B16-FO cell line MDS Pharma Services Proliferation Assay; type: functional, cell-based
[19] = target: Proto-oncogene tyrosine-protein kinase receptor Ret (Homo sapiens) (UniProt P07949); experiment: Ret (h) Upstate kinase activity assay; details: Compound concentration 10.0 uM
[20] = target: Ephrin type-A receptor 2 (Homo sapiens) (UniProt P29317); experiment: EphA2 (h) Upstate kinase activity assay; details: Compound concentration 10.0 uM
[21] = test system: Epidermal growth factor receptor (Homo sapiens), P00533 [L861Q]; details: Compound concentration 100.0 nM
[22] = target: Sodium-dependent noradrenaline transporter (Homo sapiens) (UniProt P23975); details: Compound concentration 10.0 uM
[23] = test system: Epidermal growth factor receptor (Homo sapiens), P00533 [UNDEFINED MUTATION]; details: Compound concentration 100.0 nM

Sequence of Tyrosine-protein kinase ABL2 (Homo sapiens) (P42684 whole entry): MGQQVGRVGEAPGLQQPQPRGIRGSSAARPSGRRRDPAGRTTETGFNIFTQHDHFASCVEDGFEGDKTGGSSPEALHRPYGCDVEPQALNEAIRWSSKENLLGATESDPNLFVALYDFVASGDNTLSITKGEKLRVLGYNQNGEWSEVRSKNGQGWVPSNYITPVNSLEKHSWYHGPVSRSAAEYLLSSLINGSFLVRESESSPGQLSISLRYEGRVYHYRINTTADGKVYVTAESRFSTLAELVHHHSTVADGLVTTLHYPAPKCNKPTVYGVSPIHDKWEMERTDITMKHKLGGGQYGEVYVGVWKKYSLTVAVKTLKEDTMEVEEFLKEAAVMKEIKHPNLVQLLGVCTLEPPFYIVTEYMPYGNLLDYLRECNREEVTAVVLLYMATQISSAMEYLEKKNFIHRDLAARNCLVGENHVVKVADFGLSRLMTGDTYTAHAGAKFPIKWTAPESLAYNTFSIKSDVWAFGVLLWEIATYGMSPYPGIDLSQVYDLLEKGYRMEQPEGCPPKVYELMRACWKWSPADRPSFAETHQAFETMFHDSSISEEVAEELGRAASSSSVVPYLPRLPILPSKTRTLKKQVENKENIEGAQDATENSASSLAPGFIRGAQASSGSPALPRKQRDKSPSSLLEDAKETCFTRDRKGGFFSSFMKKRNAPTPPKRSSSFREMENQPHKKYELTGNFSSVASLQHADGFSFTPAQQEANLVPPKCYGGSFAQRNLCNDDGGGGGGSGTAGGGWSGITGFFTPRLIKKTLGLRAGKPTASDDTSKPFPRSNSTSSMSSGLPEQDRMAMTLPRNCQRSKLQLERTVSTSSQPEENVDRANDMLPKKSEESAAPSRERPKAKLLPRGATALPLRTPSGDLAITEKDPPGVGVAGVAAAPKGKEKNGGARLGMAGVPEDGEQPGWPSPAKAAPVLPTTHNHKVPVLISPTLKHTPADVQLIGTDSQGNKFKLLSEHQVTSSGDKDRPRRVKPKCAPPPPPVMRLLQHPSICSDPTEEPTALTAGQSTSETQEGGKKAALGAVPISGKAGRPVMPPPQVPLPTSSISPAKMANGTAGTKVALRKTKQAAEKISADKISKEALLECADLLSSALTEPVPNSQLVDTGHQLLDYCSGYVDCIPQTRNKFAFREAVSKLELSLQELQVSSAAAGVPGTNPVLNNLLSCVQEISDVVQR
Sequence of Proto-oncogene tyrosine-protein kinase receptor Ret (Homo sapiens) (P07949 whole entry): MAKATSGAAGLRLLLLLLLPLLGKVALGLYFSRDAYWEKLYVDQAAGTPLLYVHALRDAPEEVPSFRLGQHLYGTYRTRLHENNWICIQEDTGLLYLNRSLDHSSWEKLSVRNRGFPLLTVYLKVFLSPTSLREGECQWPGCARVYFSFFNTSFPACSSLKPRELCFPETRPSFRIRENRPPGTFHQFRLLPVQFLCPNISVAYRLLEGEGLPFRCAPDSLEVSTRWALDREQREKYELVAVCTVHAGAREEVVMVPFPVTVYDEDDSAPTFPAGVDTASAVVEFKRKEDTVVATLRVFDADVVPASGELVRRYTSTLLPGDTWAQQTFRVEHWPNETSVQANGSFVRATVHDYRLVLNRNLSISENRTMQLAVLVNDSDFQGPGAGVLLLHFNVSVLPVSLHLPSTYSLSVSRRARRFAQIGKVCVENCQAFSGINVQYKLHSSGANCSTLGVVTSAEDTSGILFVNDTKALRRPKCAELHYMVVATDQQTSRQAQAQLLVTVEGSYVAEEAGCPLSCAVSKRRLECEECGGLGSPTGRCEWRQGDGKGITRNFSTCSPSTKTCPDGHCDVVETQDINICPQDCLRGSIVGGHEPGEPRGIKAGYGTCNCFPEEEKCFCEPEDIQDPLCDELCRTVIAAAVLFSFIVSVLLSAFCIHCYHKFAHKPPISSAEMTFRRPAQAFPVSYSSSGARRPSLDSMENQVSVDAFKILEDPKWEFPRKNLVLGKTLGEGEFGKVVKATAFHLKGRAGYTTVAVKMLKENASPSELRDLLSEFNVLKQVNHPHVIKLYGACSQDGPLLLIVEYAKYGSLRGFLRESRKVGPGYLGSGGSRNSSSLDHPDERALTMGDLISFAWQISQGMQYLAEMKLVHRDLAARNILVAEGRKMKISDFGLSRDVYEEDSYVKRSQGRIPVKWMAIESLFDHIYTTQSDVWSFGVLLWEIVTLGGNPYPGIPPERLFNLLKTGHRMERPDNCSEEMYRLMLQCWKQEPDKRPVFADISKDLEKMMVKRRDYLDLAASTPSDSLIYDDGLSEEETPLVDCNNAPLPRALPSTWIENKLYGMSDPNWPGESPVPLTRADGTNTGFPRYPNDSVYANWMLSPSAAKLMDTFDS
Sequence of Glycogen synthase kinase-3 beta (Homo sapiens) (P49841 whole entry, looked up): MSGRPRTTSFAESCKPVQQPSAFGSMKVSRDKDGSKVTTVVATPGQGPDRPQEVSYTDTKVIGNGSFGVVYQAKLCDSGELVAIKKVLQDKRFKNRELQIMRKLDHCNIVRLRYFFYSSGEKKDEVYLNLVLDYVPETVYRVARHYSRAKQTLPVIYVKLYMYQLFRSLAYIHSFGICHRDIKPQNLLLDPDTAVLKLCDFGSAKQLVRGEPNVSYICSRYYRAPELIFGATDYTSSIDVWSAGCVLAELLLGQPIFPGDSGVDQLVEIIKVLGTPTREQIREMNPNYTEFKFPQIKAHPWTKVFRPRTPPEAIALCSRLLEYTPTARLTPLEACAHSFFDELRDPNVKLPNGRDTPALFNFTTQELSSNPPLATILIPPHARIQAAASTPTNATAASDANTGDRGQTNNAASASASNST
Sequence of Ephrin type-A receptor 2 (Homo sapiens) (P29317 whole entry): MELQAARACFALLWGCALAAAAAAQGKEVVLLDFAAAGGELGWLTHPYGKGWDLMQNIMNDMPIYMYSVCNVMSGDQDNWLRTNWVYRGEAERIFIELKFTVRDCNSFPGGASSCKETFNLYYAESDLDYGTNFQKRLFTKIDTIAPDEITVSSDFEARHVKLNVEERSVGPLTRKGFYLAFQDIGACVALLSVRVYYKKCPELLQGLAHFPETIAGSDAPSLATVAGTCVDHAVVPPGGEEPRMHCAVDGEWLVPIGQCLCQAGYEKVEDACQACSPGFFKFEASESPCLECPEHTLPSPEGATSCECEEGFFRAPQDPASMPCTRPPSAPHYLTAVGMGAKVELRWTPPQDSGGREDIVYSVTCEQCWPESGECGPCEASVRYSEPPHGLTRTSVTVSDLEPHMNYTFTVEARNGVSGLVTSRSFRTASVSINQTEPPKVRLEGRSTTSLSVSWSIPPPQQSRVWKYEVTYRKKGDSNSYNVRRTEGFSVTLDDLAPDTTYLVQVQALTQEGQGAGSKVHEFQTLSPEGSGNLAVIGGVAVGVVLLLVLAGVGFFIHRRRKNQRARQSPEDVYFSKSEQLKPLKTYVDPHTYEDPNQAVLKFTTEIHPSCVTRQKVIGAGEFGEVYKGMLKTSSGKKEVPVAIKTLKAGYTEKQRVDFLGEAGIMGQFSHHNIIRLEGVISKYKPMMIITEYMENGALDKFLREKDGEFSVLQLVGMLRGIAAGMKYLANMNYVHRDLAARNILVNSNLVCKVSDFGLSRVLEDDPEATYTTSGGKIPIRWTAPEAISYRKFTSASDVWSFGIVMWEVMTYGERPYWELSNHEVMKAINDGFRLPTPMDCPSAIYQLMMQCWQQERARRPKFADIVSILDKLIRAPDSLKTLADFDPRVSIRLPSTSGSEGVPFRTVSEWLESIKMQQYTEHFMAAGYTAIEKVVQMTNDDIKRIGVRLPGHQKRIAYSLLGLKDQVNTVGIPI
Sequence of Mitogen-activated protein kinase 1 (Mus musculus) (P63085 whole entry): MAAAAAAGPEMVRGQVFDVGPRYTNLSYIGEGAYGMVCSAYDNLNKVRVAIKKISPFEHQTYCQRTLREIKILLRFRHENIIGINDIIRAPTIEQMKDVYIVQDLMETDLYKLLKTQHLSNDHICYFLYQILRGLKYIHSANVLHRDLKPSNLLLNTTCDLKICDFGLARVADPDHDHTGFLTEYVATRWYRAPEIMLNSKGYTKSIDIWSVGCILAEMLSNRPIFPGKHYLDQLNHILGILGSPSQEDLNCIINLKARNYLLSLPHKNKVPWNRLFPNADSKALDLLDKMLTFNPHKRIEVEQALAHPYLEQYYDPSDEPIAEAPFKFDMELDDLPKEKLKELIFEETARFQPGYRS
Sequence of Tyrosine-protein kinase Fes/Fps (Homo sapiens) (P07332 whole entry): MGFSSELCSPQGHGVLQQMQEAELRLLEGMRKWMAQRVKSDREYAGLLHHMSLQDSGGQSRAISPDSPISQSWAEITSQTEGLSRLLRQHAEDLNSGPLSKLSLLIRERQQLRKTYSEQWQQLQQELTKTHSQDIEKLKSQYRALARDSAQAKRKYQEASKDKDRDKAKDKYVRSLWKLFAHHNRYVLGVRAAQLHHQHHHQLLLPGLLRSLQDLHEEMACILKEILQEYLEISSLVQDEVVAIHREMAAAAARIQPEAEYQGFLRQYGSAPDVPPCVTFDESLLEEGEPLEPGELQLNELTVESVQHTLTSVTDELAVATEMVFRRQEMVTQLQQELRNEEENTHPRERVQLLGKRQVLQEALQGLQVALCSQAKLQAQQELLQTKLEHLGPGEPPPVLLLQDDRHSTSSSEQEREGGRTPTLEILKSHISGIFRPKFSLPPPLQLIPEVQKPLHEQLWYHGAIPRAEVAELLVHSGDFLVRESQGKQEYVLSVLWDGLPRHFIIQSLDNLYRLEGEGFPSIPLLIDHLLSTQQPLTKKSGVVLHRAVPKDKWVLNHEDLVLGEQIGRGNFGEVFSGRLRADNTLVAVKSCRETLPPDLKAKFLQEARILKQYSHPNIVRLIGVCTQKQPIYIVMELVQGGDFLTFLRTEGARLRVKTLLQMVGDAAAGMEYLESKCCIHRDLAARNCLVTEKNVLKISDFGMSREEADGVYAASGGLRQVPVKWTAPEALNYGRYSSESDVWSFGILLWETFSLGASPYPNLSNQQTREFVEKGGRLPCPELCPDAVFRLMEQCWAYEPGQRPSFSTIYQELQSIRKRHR

**Q.** With `Cc1c[nH]c2nccc(Oc3c(F)cc(Nc4cc(Cl)nc(N)n4)cc3F)c12` [BAY-549] as the molecule, how does the inhibition [1] read?
**A.** -8.68%

**Q.** What about the inhibition [2] of the same molecule?
**A.** 21%

**Q.** What about the inhibition [3] of the same molecule?
**A.** 98%

**Q.** What about the inhibition [4] of the same molecule?
**A.** 79%

**Q.** And the inhibition [5]?
**A.** 28%

**Q.** And the inhibition [6]?
**A.** 33%

**Q.** And the inhibition [7]?
**A.** 37%

**Q.** What about the inhibition [8] of the same molecule?
**A.** 85%

**Q.** What about the inhibition [9] of the same molecule?
**A.** 9%

**Q.** What about the inhibition [10] of the same molecule?
**A.** -1%

**Q.** What about the TGI ([11]; Homo sapiens, PANC-1) of the same molecule?
**A.** 45 µM

**Q.** What about the CC50 ([11]; Homo sapiens, PANC-1, read-out: LC50 (the source's name)) of the same molecule?
**A.** > 100 µM

**Q.** And the “Mean % growth (n = 2) for 10.0 µM probe concentration” value ([11]; ± SEM 1 % growth)?
**A.** 55%

**Q.** And the “Mean % growth (n = 2) for 1.0 µM probe concentration” value ([11]; ± SEM 2 % growth)?
**A.** 87%

**Q.** What about the “Mean % growth (n = 2) for 0.1 µM probe concentration” value ([11]; ± SEM 3 % growth) of the same molecule?
**A.** 86%

**Q.** What about the “Mean % growth (n = 2) for 0.01 µM probe concentration” value ([11]; ± SEM 8 % growth) of the same molecule?
**A.** 98%

**Q.** And the “Mean % growth (n = 2) for 100.0 µM probe concentration” value ([11]; ± SEM 9 % growth)?
**A.** -31%

**Q.** And the inhibition [12]?
**A.** 85%

**Q.** And the inhibition [13]?
**A.** 20%

**Q.** And the IC50 ([14]; Homo sapiens, A498)?
**A.** 7.8 µM

**Q.** What about the TGI ([14]; Homo sapiens, A498) of the same molecule?
**A.** 70 µM

**Q.** And the CC50 ([14]; Homo sapiens, A498, read-out: LC50 (the source's name))?
**A.** > 100 µM

**Q.** And the “Mean % growth (n = 2) for 0.01 µM probe concentration” value ([14]; ± SEM 2 % growth)?
**A.** 99%

**Q.** What about the “Mean % growth (n = 2) for 10.0 µM probe concentration” value ([14]; ± SEM 2 % growth) of the same molecule?
**A.** 26%

**Q.** And the “Mean % growth (n = 2) for 100.0 µM probe concentration” value ([14]; ± SEM 2 % growth)?
**A.** -1%

**Q.** What about the “Mean % growth (n = 2) for 0.1 µM probe concentration” value ([14]; ± SEM 5 % growth) of the same molecule?
**A.** 93%

**Q.** And the “Mean % growth (n = 2) for 1.0 µM probe concentration” value ([14]; ± SEM 5 % growth)?
**A.** 98%

**Q.** And the IC50 ([15]; Homo sapiens, U-937)?
**A.** 14 µM

**Q.** What about the TGI ([15]; Homo sapiens, U-937) of the same molecule?
**A.** > 100 µM

**Q.** What about the CC50 ([15]; Homo sapiens, U-937, read-out: LC50 (the source's name)) of the same molecule?
**A.** > 100 µM

**Q.** What about the “Mean % growth (n = 2) for 0.01 µM probe concentration” value ([15]; ± SEM 1 % growth) of the same molecule?
**A.** 101%

**Q.** What about the “Mean % growth (n = 2) for 0.1 µM probe concentration” value ([15]; ± SEM 2 % growth) of the same molecule?
**A.** 103%

**Q.** And the “Mean % growth (n = 2) for 1.0 µM probe concentration” value ([15]; ± SEM 2 % growth)?
**A.** 104%

**Q.** What about the “Mean % growth (n = 2) for 100.0 µM probe concentration” value ([15]; ± SEM 5 % growth) of the same molecule?
**A.** 17%

**Q.** What about the “Mean % growth (n = 2) for 10.0 µM probe concentration” value ([15]; ± SEM 7 % growth) of the same molecule?
**A.** 56%

**Q.** What about the inhibition [16] of the same molecule?
**A.** -8%

**Q.** What about the “Mean % growth (n = 2) for 0.01 µM probe concentration” value [17] of the same molecule?
**A.** 101%

**Q.** And the IC50 ([17]; Homo sapiens, DLD-1)?
**A.** 2400 nM

**Q.** And the TGI ([17]; Homo sapiens, DLD-1)?
**A.** > 100 µM

**Q.** What about the CC50 ([17]; Homo sapiens, DLD-1, read-out: LC50 (the source's name)) of the same molecule?
**A.** > 100 µM

**Q.** What about the “Mean % growth (n = 2) for 10.0 µM probe concentration” value ([17]; ± SEM 1 % growth) of the same molecule?
**A.** 24%

**Q.** And the “Mean % growth (n = 2) for 100.0 µM probe concentration” value ([17]; ± SEM 1 % growth)?
**A.** 5%

**Q.** What about the “Mean % growth (n = 2) for 0.1 µM probe concentration” value ([17]; ± SEM 2 % growth) of the same molecule?
**A.** 94%

**Q.** What about the “Mean % growth (n = 2) for 1.0 µM probe concentration” value ([17]; ± SEM 4 % growth) of the same molecule?
**A.** 66%

**Q.** And the CC50 ([18]; Mus musculus, B16-F10, read-out: LC50 (the source's name))?
**A.** > 100 µM

**Q.** What about the “Mean % growth (n = 2) for 1.0 µM probe concentration” value ([18]; ± SEM 1 % growth) of the same molecule?
**A.** 106%

**Q.** And the “Mean % growth (n = 2) for 0.1 µM probe concentration” value ([18]; ± SEM 4 % growth)?
**A.** 94%

**Q.** And the “Mean % growth (n = 2) for 0.01 µM probe concentration” value ([18]; ± SEM 5 % growth)?
**A.** 98%

**Q.** What about the “Mean % growth (n = 2) for 100.0 µM probe concentration” value ([18]; ± SEM 5 % growth) of the same molecule?
**A.** -46%

**Q.** What about the “Mean % growth (n = 2) for 10.0 µM probe concentration” value ([18]; ± SEM 9 % growth) of the same molecule?
**A.** 53%

**Q.** What about the inhibition [19] of the same molecule?
**A.** 52%

**Q.** And the inhibition [20]?
**A.** 4%

**Q.** With `Cn1cc(Cl)c2c(Oc3c(F)cc(Nc4cc(Cl)nc(N)n4)cc3F)ccnc21` [BAY-4900] as the molecule, how does the residual activity [21] read?
**A.** 100%

**Q.** What about the inhibition [22] of the same molecule?
**A.** 3.14%

**Q.** What about the residual activity [23] of the same molecule?
**A.** 52%

From ChEMBL document CHEMBL4507274 (2021)
